From patent US6322771A, “Induction of pharmacological stress with adenosine receptor agonists” (priority 1999, dated 2001)
Where two headings read alike, the source gives them in different places.

How the values were obtained:
A1 adenosine receptors = conditions: A1 versus A2A adenosine receptors; cited from earlier work
[1] = test system: dog with critical LAD stenosis
Description: Following a 15 minute baseline stabilization period, the LAD snare occluder was tightened to produce a critical LAD stenosis. A critical stenosis was defined as one that produced no change in resting coronary flow, however coronary flow reserve was completely abolished. […] Five minutes later, an in vivo image was acquired and the animal was then immediately killed to prevent ^99m Tc-N-NOET redistribution. The heart was removed and sliced into 4 rings from apex to base. The heart slices were placed on a cardboard sheet, covered with plastic wrap, and ex vivo imaging of the heart slices was performed directly on the collimator of a conventional planar gamma camera. Image background subtraction was performed on the in vivo image using standard nuclear medicine software developed for this purpose. Defect magnitude was expressed as an LAD/LCX count ratio between counts in LAD and LCX regions of interest drawn on the in vivo and ex vivo heart images.

adult mongrel dogs = conditions: for LCX coronary flow: baseline 42 ml/min
patients [2] = conditions: 9,256 patients; cited from earlier work
patients [3] = conditions: 3,911 patients; cited from earlier work
patients [4] = conditions: 3,715 patients; cited from earlier work

For `Nc1nc(Cl)nc2c1ncn2[C@@H]1O[C@H](CO)[C@@H](O)[C@H]1O` [Cl-Ado, 2-chloroadenosine], the “receptor subtype preference as activator” value (A1 adenosine receptors) is listed as “more potent activator of A1 adenosine receptors than of A2A adenosine receptors”.

With `CCNC(=O)[C@H]1O[C@@H](n2cnc3c(N)nc(C#CC[C@H]4CC[C@H](C(=O)OC)CC4)nc32)[C@H](O)[C@@H]1O` [DWH-146e] the “increase of coronary flow in the normal LCX coronary artery” value ([1]; 0.3 μg/kg/min i.v. infusion) was about 5 fold, the “in vivo and ex vivo 99mTc-N-NOET images” value ([1]; critical LAD stenosis) was “readily detectable large anteroseptal perfusion defects” and the “change in mean arterial pressure” value ([1]; dog, in vivo) was “no change”. For the same molecule, the “Heart Rate” value ([1]; peak, 0.3 μg/kg/min i.v. infusion, baseline 109, stenosis 123) was 143 BPM, the dP/dt ([1]; peak, 0.3 μg/kg/min i.v. infusion, baseline 2906, stenosis 2713) was 2606 mm Hg · sec-1 and the “LCX coronary flow” value ([1]; peak, 0.3 μg/kg/min i.v. infusion, normal artery, baseline 39, stenosis 38) was 185 mL/min. For the same molecule, the “LAD Coronary Flow” value ([1]; peak, 0.3 μg/kg/min i.v. infusion, stenosed artery, baseline 39, stenosis 37) was 42 mL/min.

For `CCNC(=O)[C@H]1O[C@@H](n2cnc3c(N)nc(C#CCC4CCC(COC(C)=O)CC4)nc32)[C@H](O)[C@@H]1O` (stereo partly drawn) [JMR-193e, [4-(3-{9[(4S,5S,2R,3R)-5-(N-ethylcarbamoyl)-3,4-dihydroxyoxolan-2-yl]-6-aminopurin-2-yl}prop-2-ynyl)cyclohexyl]methyl acetate], the LCX coronary flow (adult mongrel dogs; 0.05 μg/kg/min x 10 min i.v. infusion) was 66 mL/min, the LCX coronary flow (adult mongrel dogs; 0.1 μg/kg/min x 10 min i.v. infusion) was 75 mL/min and the LCX coronary flow (adult mongrel dogs; 0.2 μg/kg/min x 10 min i.v. infusion) was 124 mL/min. For the same molecule, the LCX coronary flow (adult mongrel dogs; 0.3 μg/kg/min x 10 min i.v. infusion) was 153 mL/min, the LCX coronary flow (adult mongrel dogs; 0.4 μg/kg/min x 10 min i.v. infusion) was 140 mL/min and the “time flow remained elevated more than 2x normal” value (adult mongrel dogs; bolus 0.3 μg/kg) was 3 to 4 min. For the same molecule, the “time of maximal LCX flow post-injection” value (adult mongrel dogs; bolus 0.3 μg/kg) was 2.3 min, the LCX flow (adult mongrel dogs; bolus 0.3 μg/kg, from 41 ml/min) was 140 mL/min and the “pharmacodynamic t1/2” value (adult mongrel dogs; return of hemodynamics to baseline after terminating the infusion) was 12 ± 2 min.

For `Nc1ncnc2c1ncn2[C@@H]1O[C@H](CO)[C@@H](O)[C@H]1O` [adenosine], the LCX flow (adult mongrel dogs; i.v. 250 μg/kg/min x 3 min) is given as 139 mL/min, the arterial pressure (adult mongrel dogs; i.v. 250 μg/kg/min x 3 min, from 109 mm Hg) is given as 80 mm Hg and the A-V conduction block (patients [2]) is given as 8%. For the same molecule, the ECG changes (patients [2]) was 9%, the chest pain (patients [2]) was 35% and the flushing (patients [2]) was 37%. For the same molecule, the headache (patients [2]) was 14%, the “patients with adverse side effects” value (patients [2]) was 82% and the “shortness of breath or dyspnea” value (patients [2]) was 35%.

In the case of `OCCN(CCO)c1nc(N2CCCCC2)c2nc(N(CCO)CCO)nc(N3CCCCC3)c2n1` [dipyridamole], the “ST-segment changes on ECG” value (patients [3]) is given as 8%, the headaches (patients [3]) is given as 12% and the “fall of mean systolic blood pressure” value (patients [4]) is given as 14 mm Hg. For the same molecule, the “patients with a >20% drop in systolic blood pressure” value (patients [4]) was 11%.
